Test results as given in patent US20100292210A1, “Novel Compounds for A-Beta-Related Pathologies” (AstraZeneca AB, priority 2009, published 2010).

The compounds below were run on Aβ42 release (assay: Aβ42 release from HEK cells stably expressing APPswe, Meso Scale Discovery electrochemiluminescence assay). Details: Homo sapiens, HEK293; HEK cell line stably expressing APPswe; 4-6 h incubation with test compound; Aβ42 secreted to cell medium; read-out: pIC50 values of Aβ42 release (converted).
Format: cell-based
Protocol: The level of activity of the compounds on Aβ formation was tested using the following method:
Compounds were diluted in 100% DMSO and stored at […] prior to use. Human Embryonic Kidney (HEK) cell line stably expressing APP with the Swedish mutation (APPswe) were cultured using Dulbecco's Modified Eagles medium (DMEM) supplied with […] glucose, Na-pyruvate and GlutaMAX with 10% FBS, 100 U/ml penicillin-streptomycin (PEST) respectively, 1×non-essential amino acids (NEAA), […], 100 μg/ml Zeocine. Cells at about 80% confluence were washed with PBS, detached from culture flasks using 1×Trypsin/EDTA diluted in PBS, re-suspended in cell media and plated in 384-well poly-d-lysine coated cell culture plates at about 10000-15000 cells/well, in 25 μL cell media. Optionally, cryo-preserved cells (frozen and stored at −140° C. in 90% cell media and 10% DMSO) were thawed, washed and plated as above. Next the cells were incubated for 15-24 h at 37° C. and 5% CO2, after which cell medium was changed. Fresh medium containing test compound diluted ×200 from prepared compound plate was added to the cells before further incubation for 4-6 hours at 37° C. and 5% CO2. After incubation with test compound the amount of Aβ peptides, including Aβ42, Aβ40, Aβ39, Aβ38 and Aβ37, secreted to cell medium was analyzed using the electrochemiluminescence assay technology from Meso Scale Discovery Technology, in combination with specific antibodies raised against the different Aβ peptides. Potential cytotoxic effects of the compounds were usually assayed by measuring the ATP content (ViaLight) from cell lysate.
Work on `COc1nc(Nc2ccc3c(n2)O[C@H](c2ccccc2)CN(C(C)=O)C3)ccc1-n1cnc(C)c1` [Example 11, (R)-1-(8-(6-methoxy-5-(4-methyl-1H-imidazol-1-yl)pyridin-2-ylamino)-2-phenyl-2,3-dihydropyrido[3,2-f][1,4]oxazepin-4(5H)-yl)ethanone] yielded an IC50 of 15.8 nM. Work on `COc1cc(Nc2ccc3c(n2)OC(c2ccccc2)CN(CCF)C3)ccc1-n1cnc(C)c1` (centres unmarked) [Example 15, 4-(2-fluoroethyl)-N-(3-methoxy-4-(4-methyl-1H-imidazol-1-yl)phenyl)-2-phenyl-2,3,4,5-tetrahydropyrido[3,2-f][1,4]oxazepin-8-amine] yielded an IC50 of 31.6 nM. Compound `Cc1nccn1-c1ccc(Nc2ccc3c(n2)N(C2CCCC2)CCN(C)C3=O)cc1` [Example 25, 1-cyclopentyl-4-methyl-8-(4-(2-methyl-1H-imidazol-1-yl)phenylamino)-3,4-dihydro-1H-pyrido[2,3-e][1,4]diazepin-5(2H)-one] has an IC50 of 5010 nM. `COc1cc(Nc2cnc3c(n2)O[C@H](c2ccccc2)CN(C)C3)ccc1-n1cnc(C)c1` [Example 39, (R)—N-(3-Methoxy-4-(4-methyl-1H-imidazol-1-yl)phenyl)-8-methyl-6-phenyl-6,7,8,9-tetrahydropyrazino[2,3-f][1,4]oxazepin-3-amine] was tested, and the IC50 was 79.4 nM. `COc1cc(Nc2ccc3c(n2)OC(c2ccccc2)CN(C)C3)ccc1-n1cnc(C)c1` (centres unmarked) [Example 7, N-(3-methoxy-4-(4-methyl-1H-imidazol-1-yl)phenyl)-4-methyl-2-phenyl-2,3,4,5-tetrahydropyrido[3,2-f][1,4]oxazepin-8-amine] was tested, and the IC50 was 39.8 nM. For `Cc1cn(-c2ccc(Nc3ccc4c(n3)OC(c3ccccc3)CN(C)C4)cc2F)cn1` (centres unmarked) [Example 16, N-(3-fluoro-4-(4-methyl-1H-imidazol-1-yl)phenyl)-4-methyl-2-phenyl-2,3,4,5-tetrahydropyrido[3,2-f][1,4]oxazepin-8-amine], the IC50 was 79.4 nM. With `COc1cc(Nc2ncc3c(n2)O[C@H](c2ccccc2)CN(CCF)C3)ccc1-n1cnc(C)c1` [Example 12, (R)-6-(2-fluoroethyl)-N-(3-methoxy-4-(4-methyl-1H-imidazol-1-yl)phenyl)-8-phenyl-5,6,7,8-tetrahydropyrimido[5,4-f][1,4]oxazepin-2-amine] the IC50 was 15.8 nM. Work on `Cc1cn(-c2ccc(Nc3ccc4c(n3)O[C@H](c3ccccc3)CN(CCO)C4)cc2)cn1` [Example 42, (R)-2-(8-(4-(4-Methyl-1H-imidazol-1-yl)phenylamino)-2-phenyl-2,3-dihydropyrido[3,2-f][1,4]oxazepin-4(5H)-yl)ethanol] yielded an IC50 of 31.6 nM. `COc1cc(Nc2ccc3c(n2)OC(c2cccnc2)CN(C(C)=O)C3)ccc1-n1cnc(C)c1` (centres unmarked) [Example 22, 1-(8-(3-Methoxy-4-(4-methyl-1H-imidazol-1-yl)phenylamino)-2-(pyridin-3-yl)-2,3-dihydropyrido[3,2-f][1,4]oxazepin-4(5H)-yl)ethanone] gave an IC50 of 501 nM. With `Cc1nccn1-c1ccc(Nc2ccc3c(n2)OC(c2ccccc2)CN(C)C3=O)cc1` (centres unmarked) [Example 2, 4-methyl-8-(4-(2-methyl-1H-imidazol-1-yl)phenylamino)-2-phenyl-3,4-dihydropyrido[3,2-f][1,4]oxazepin-5(2H)-one] the IC50 was 1260 nM. With `Cc1cc(C2CN(CC#N)Cc3ccc(Nc4ccc(-n5ccnc5C)cc4)nc3O2)n(C)n1` (centres unmarked) [Example 27, 2-(2-(1,3-Dimethyl-1H-pyrazol-5-yl)-8-(4-(2-methyl-1H-imidazol-1-yl)phenylamino)-2,3-dihydropyrido[3,2-f][1,4]oxazepin-4(5H)-yl)acetonitrile] the IC50 was 7940 nM. Compound `COc1nc(Nc2ccc3c(n2)O[C@H](c2ccccc2)CN(C)C3)ccc1-c1cnn(C)c1` [Example 50, (R)—N-(6-Methoxy-5-(1-methyl-1H-pyrazol-4-yl)pyridin-2-yl)-4-methyl-2-phenyl-2,3,4,5-tetrahydropyrido[3,2-f][1,4]oxazepin-8-amine] has an IC50 of 7.94 nM. With `COc1cc(Nc2ccc3c(n2)OC(C2CC2)CN(C)C3)ccc1-n1cnc(C)n1` (centres unmarked) [Example 51, 2-Cyclopropyl-N-(3-methoxy-4-(3-methyl-1H-1,2,4-triazol-1-yl)phenyl)-4-methyl-2,3,4,5-tetrahydropyrido[3,2-f][1,4]oxazepin-8-amine] the IC50 was 501 nM. `CN1CC(c2ccccc2)Oc2nc(Nc3ccc(-n4ccnc4)cc3)ccc2C1=O` (centres unmarked) [Example 5, 8-(4-(1H-imidazol-1-yl)phenylamino)-4-methyl-2-phenyl-3,4-dihydropyrido[3,2-f][1,4]oxazepin-5(2H)-one] showed an IC50 of 1000 nM. Compound `COc1nc(Nc2ccc3c(n2)O[C@H](c2ccccc2)CNC3)ccc1-c1cnn(C)c1` [Example 56, (R)—N-(6-Methoxy-5-(1-methyl-1H-pyrazol-4-yl)pyridin-2-yl)-2-phenyl-2,3,4,5-tetrahydropyrido[3,2-f][1,4]oxazepin-8-amine] has an IC50 of 10 nM. `CN1Cc2ccc(Nc3ccc(-n4ccnc4CO)cc3)nc2O[C@H](c2ccccc2)C1` [Example 60, (R)-(1-(4-(4-Methyl-2-phenyl-2,3,4,5-tetrahydropyrido[3,2-f][1,4]oxazepin-8-ylamino)phenyl)-1H-imidazol-2-yl)methanol] was tested, and the IC50 was 31.6 nM. For `COc1cc(Nc2ccc3c(n2)OC(c2ccccc2)CN(CCO)C3=O)ccc1-n1cnc(C)c1` (centres unmarked) [Example 20, 4-(2-Hydroxyethyl)-8-(3-methoxy-4-(4-methyl-1H-imidazol-1-yl)phenylamino)-2-phenyl-3,4-dihydropyrido[3,2-f][1,4]oxazepin-5(2H)-one], the IC50 was 200 nM. `OCCN1Cc2ccc(Nc3ccc(-c4nnc5n4CCC5)cc3)nc2O[C@H](c2ccccc2)C1` [Example 26, (R)-2-(8-(4-(6,7-Dihydro-5H-pyrrolo[2,1-c][1,2,4]triazol-3-yl)phenylamino)-2-phenyl-2,3-dihydropyrido[3,2-f][1,4]oxazepin-4(5H)-yl)ethanol] was tested, and the IC50 was 20000 nM. `COc1cc(Nc2ccc3c(n2)OC(COC(C)C)CN(C(C)=O)C3)ccc1-n1cnc(C)c1` (centres unmarked) [Example 31, 1-(2-(Isopropoxymethyl)-8-(3-methoxy-4-(4-methyl-1H-imidazol-1-yl)phenylamino)-2,3-dihydropyrido[3,2-f][1,4]oxazepin-4(5H)-yl)ethanone] gave an IC50 of 631 nM. `COc1cc(Nc2ccc3c(n2)OC(COC(C)C)CN(C)C3)ccc1-n1cnc(C)c1` (centres unmarked) [Example 35, 2-(Isopropoxymethyl)-N-(3-methoxy-4-(4-methyl-1H-imidazol-1-yl)phenyl)-4-methyl-2,3,4,5-tetrahydropyrido[3,2-f][1,4]oxazepin-8-amine] showed an IC50 of 200 nM. For `COc1cc(Nc2ccc3c(n2)O[C@H](c2ccccc2)CN(CCO)C3)ccc1C#N` [Example 29, (R)-4-(4-(2-Hydroxyethyl)-2-phenyl-2,3,4,5-tetrahydropyrido[3,2-f][1,4]oxazepin-8-ylamino)-2-methoxybenzonitrile], the IC50 was 1260 nM. `COc1cc(Nc2cnc3c(n2)O[C@H](c2ccccc2)CN(CC#N)C3)ccc1-n1cnc(C)c1` [Example 38, (R)-2-(3-(3-methoxy-4-(4-methyl-1H-imidazol-1-yl)phenylamino)-6-phenyl-6,7-dihydropyrazino[2,3-f][1,4]oxazepin-8(9H)-yl)acetonitrile] gave an IC50 of 100 nM. Compound `Cc1nccn1-c1ccc(Nc2ccc3c(n2)OC(c2ccccc2)CN(CCO)C3=O)cc1` (centres unmarked) [Example 24, 4-(2-hydroxyethyl)-8-(4-(2-methyl-1H-imidazol-1-yl)phenylamino)-2-phenyl-3,4-dihydropyrido[3,2-f][1,4]oxazepin-5(2H)-one] has an IC50 of 794 nM.
